# Columns and labels:
# Assay type in all cases: in vivo, Sprague Dawley rats
# [1] = test system: rat model of STZ-induced DNP; experiment: Comparison of dosing schedules, thermal hyperalgesia (hot plate test), Example B2; parameters: key to Efficacy: rescue of thermal hyperalgesia behavior as measured by paw withdrawal latency: NS indicates treatment did not significantly affect paw withdrawal latency vs DNP control.; + indicates p < 0.05 vs DNP control.; ++ indicates p < 0.01 vs DNP control.; +++ indicates p < 0.001 vs DNP control; conditions: for Efficacy: rescue of thermal hyperalgesia behavior as measured by paw withdrawal latency: p vs DNP control
# Procedure: (§1) An additional series of studies were performed to compare the ability of Compound 1a to reduce mechanical allodynia and thermal hyperalgesia pain behaviors in hyperglycemic rats dosed once or twice daily. Briefly, a single dose of STZ (55 mg/kg via intravenous (IV)) was administered to induce a Type I diabetic hyperglycemia in male Sprague Dawley rats. Hyperglycemia was confirmed 4 days after STZ administration, with blood glucose levels above 200 mg/dL considered successful model induction. Development of a painful phenotype was confirmed 14 days after STZ administration through assessments of both mechanical allodynia and thermal hyperalgesia. Starting 15 days after disease induction, Compound 1a (8 mg/kg) was orally administered once (QD) or twice (Q12h) daily from day 15 to day 41. Control groups included animals with no diabetic induction (Sham control) and animals with diabetes but treated only with formulation vehicle (DNP [diabetic peripheral neuropathy] control).
# (§2) Mechanical allodynia and thermal hyperalgesia were assessed as described in Example B1. Briefly, on study days 21, 27, 35, and 41, mechanical allodynia and thermal hyperalgesia were assessed one-hour post-dose using von Frey filaments (1.4, 4, 10, 15, 26, 48, and 60 g) and the hot plate test (52.5° C.), respectively. Pain level was also measured on day 48 following a 7-day compound-free washout to evaluate the persistence of the effects of administration of Compound 1a.
# STZ DNP rats [2] = experiment: Mechanical allodynia rescue assay (Von Frey paw withdrawal threshold), Example B1; parameters: key to Efficacy: rescue of mechanical allodynia behavior as measured by paw withdrawal threshold: NS indicates treatment did not significantly affect paw withdrawal threshold vs disease control.; + indicates p < 0.05 vs disease control.; ++ indicates p < 0.01 vs disease control.; +++ indicates p < 0.001 vs disease control; conditions: for Efficacy: rescue of mechanical allodynia behavior as measured by paw withdrawal threshold: study day 28 after 14 days of treatment, p vs disease control
# Excerpt: Hyperglycemic rats consistently develop neuropathic pain-associated behaviors including mechanical allodynia. Allodynia refers to a type of neuropathic pain characterized by increased sensitivity to stimuli that are not normally painful. Mechanical allodynia is quantified in rats by determination of the force required to induce a withdrawal of the paw and is negatively associated with allodynia such that, the lower the force required to induce paw withdrawal, the greater the pain behavior.
# (§3) A series of studies were performed to determine the ability of HGF/MET positive modulator compounds to reduce the mechanical allodynia pain behaviors in hyperglycemic rats. A single dose of STZ (55 mg/kg via intravenous (IV)) was administered to induce a Type I diabetic hyperglycemia in male Sprague Dawley rats. Hyperglycemia was confirmed 4 days after STZ administration, with blood glucose levels above 200 mg/dL considered successful model induction. 14 days after disease induction, test compound treatment was initiated and continued as daily compound administration over the remaining course of the study. Route and dose for each compound were determined by pharmacokinetic and distribution modelling. Control groups included animals with no diabetic induction (Sham control), animals with diabetes but treated only with formulation vehicle (DNP (diabetic peripheral neuropathy) control), and disease animals treated with pregabalin (30 mg/kg via PO), which is known to reduce neuropathic pain behaviors.
# (§4) Changes to neuropathic pain behaviors were assessed after 14 days of compound treatment on study day 28. Mechanical allodynia was tested by placing each animal on an elevated wire grid and stimulating the plantar surface of the right rear paw with a series of filaments corresponding to increasing orders of force, reaching a maximum force of 60 grams (Aesthesio manual Von Frey filaments). The force of the filament that causes paw withdrawal was considered the paw withdrawal threshold in grams. Pain sensitivity in response to thermal hyperalgesia was determined by using hot plate method and represented as paw withdrawal latency (PWL). Rats were placed on the hot plate (52.5° C.), and the time taken to show the nocifensive behavior (either licking or jumping) of any of their paws was recorded. Statistical comparison of treatment groups to DNP control groups was performed by one-way ANOVA followed by Dunnett's multiple comparisons test.
# [3] = test system: rat model of STZ-induced DNP; experiment: Comparison of dosing schedules, mechanical allodynia (von Frey filaments), Example B2; parameters: key to Efficacy: rescue of mechanical allodynia behavior as measured by paw withdrawal threshold: NS indicates treatment did not significantly affect paw withdrawal threshold vs DNP control.; + indicates p < 0.05 vs DNP control.; ++ indicates p < 0.01 vs DNP control.; +++ indicates p < 0.001 vs DNP control; conditions: for Efficacy: rescue of mechanical allodynia behavior as measured by paw withdrawal threshold: p vs DNP control
# Procedure: as §1, §2
# STZ DNP rats [4] = experiment: Thermal hyperalgesia rescue assay (hot plate paw withdrawal latency), Example B1; parameters: key to Efficacy: rescue of thermal hyperalgesia behavior as measured by paw withdrawal latency: NS indicates treatment did not significantly affect paw withdrawal latency vs disease control.; + indicates p < 0.05 vs disease control.; ++ indicates p < 0.01 vs disease control.; +++ indicates p < 0.001 vs disease control; conditions: for Efficacy: rescue of thermal hyperalgesia behavior as measured by paw withdrawal latency: study day 28 after 14 days of treatment, hot plate 52.5° C., p vs disease control
# Procedure: as §3, §4
# [5] = 8 mg/kg PO Q12 h from day 15 to day 41, Day 21, one-hour post-dose
# [6] = 8 mg/kg PO Q12 h from day 15 to day 41, Day 27, one-hour post-dose
# [7] = 8 mg/kg PO Q12 h from day 15 to day 41, Day 48, after 7-day compound-free washout
# [8] = 8 mg/kg PO QD from day 15 to day 41, Day 21, one-hour post-dose
# [9] = 8 mg/kg PO QD from day 15 to day 41, Day 27, one-hour post-dose
# [10] = 8 mg/kg PO QD from day 15 to day 41, Day 48, after 7-day compound-free washout
# [11] = 8 mg/kg PO QD or Q12h, starting on day 27
# [12] = day 48, after 7-day compound-free washout
smiles,measurement,setting,value
CCC(C)CN1CC2N(C(=O)c3ccc(C(F)(F)F)cc3)CCC(=O)N2[C@@H](C)C1=O (some centres unmarked) [Compound 1a],Efficacy: rescue of thermal hyperalgesia behavior as measured by paw withdrawal latency,[1]; [5],NS
same,Efficacy: rescue of thermal hyperalgesia behavior as measured by paw withdrawal latency,[1]; [6],+ (+ indicates p < 0.05 vs DNP control.)
same,Efficacy: rescue of thermal hyperalgesia behavior as measured by paw withdrawal latency,[1]; [7],+++ (+++ indicates p < 0.001 vs DNP control.)
same,Efficacy: rescue of thermal hyperalgesia behavior as measured by paw withdrawal latency,[1]; [8],NS
same,Efficacy: rescue of thermal hyperalgesia behavior as measured by paw withdrawal latency,[1]; [9],+ (+ indicates p < 0.05 vs DNP control.)
same,Efficacy: rescue of thermal hyperalgesia behavior as measured by paw withdrawal latency,[1]; [10],+++ (+++ indicates p < 0.001 vs DNP control.)
same,"reversal of the increase in pain-related behaviors, thermal allodynia",[1]; [11],effectively reversed
same,"persistence of pain-reducing effects, thermal allodynia",[1]; [12],sustained
same,Efficacy: rescue of mechanical allodynia behavior as measured by paw withdrawal threshold,STZ DNP rats [2]; 0.05 mg/kg PO daily,NS
same,Efficacy: rescue of mechanical allodynia behavior as measured by paw withdrawal threshold,STZ DNP rats [2]; 0.2 mg/kg PO daily,NS
same,Efficacy: rescue of mechanical allodynia behavior as measured by paw withdrawal threshold,STZ DNP rats [2]; 2 mg/kg PO daily,+++ (+++ indicates p < 0.001 vs disease control.)
same,Efficacy: rescue of mechanical allodynia behavior as measured by paw withdrawal threshold,STZ DNP rats [2]; 8 mg/kg PO daily,+++ (+++ indicates p < 0.001 vs disease control.)
same,rescue of the mechanical allodynia behavior as measured by paw withdrawal threshold,STZ DNP rats [2]; STZ DNP rats,significant rescue
same,Efficacy: rescue of mechanical allodynia behavior as measured by paw withdrawal threshold,[3]; [5],NS
same,Efficacy: rescue of mechanical allodynia behavior as measured by paw withdrawal threshold,[3]; [6],++ (++ indicates p < 0.01 vs DNP control.)
same,Efficacy: rescue of mechanical allodynia behavior as measured by paw withdrawal threshold,[3]; [7],+++ (+++ indicates p < 0.001 vs DNP control.)
same,Efficacy: rescue of mechanical allodynia behavior as measured by paw withdrawal threshold,[3]; [8],NS
same,Efficacy: rescue of mechanical allodynia behavior as measured by paw withdrawal threshold,[3]; [9],++ (++ indicates p < 0.01 vs DNP control.)
same,Efficacy: rescue of mechanical allodynia behavior as measured by paw withdrawal threshold,[3]; [10],NS
same,"reversal of the increase in pain-related behaviors, mechanical allodynia",[3]; [11],effectively reversed
same,"persistence of pain-reducing effects, mechanical allodynia",[3]; [12],sustained
same,Efficacy: rescue of thermal hyperalgesia behavior as measured by paw withdrawal latency,STZ DNP rats [4]; 0.05 mg/kg PO daily,NS
same,Efficacy: rescue of thermal hyperalgesia behavior as measured by paw withdrawal latency,STZ DNP rats [4]; 0.2 mg/kg PO daily,NS
same,Efficacy: rescue of thermal hyperalgesia behavior as measured by paw withdrawal latency,STZ DNP rats [4]; 2 mg/kg PO daily,+++ (+++ indicates p < 0.001 vs disease control.)
same,Efficacy: rescue of thermal hyperalgesia behavior as measured by paw withdrawal latency,STZ DNP rats [4]; 8 mg/kg PO daily,+++ (+++ indicates p < 0.001 vs disease control.)
same,rescue of thermal allodynia behavior as measured by paw withdrawal latency,STZ DNP rats [4]; STZ DNP rats,significant rescue

# From patent publication US20250275975A1, “Methods of Treating Neuropathies” (Athira Pharma, Inc., priority 2023, published 2025)
